In assay [1] the target is T1, Human TRPA1 expressing CHO cells (Homo sapiens, UniProt O75762).
T1 construct: expressed in transfected cells; host or cells: CHO cells (G-418 selection)
Put plainly: 45Calcium uptake assay, inhibition of AITC induced calcium uptake (human). The assay is classed as cell-based. Particulars: human TRPA1 CHO cells, AITC 30 μM; for inhibition at 1 µM: compound 1.0 μM, read-out: Percentage inhibition at 1.0 μM; for inhibition at 10 µM: compound 10.0 μM, read-out: Percentage inhibition at 10.0 μM; for IC50: read-out: Human IC50 value (Range). The procedure: (§1) Screening for TRPA1 Antagonist Using the ^45Calcium Uptake Assay:
(§2) The inhibition of TRPA1 receptor activation was measured as inhibition of allyl isothiocyanate (AITC) induced cellular uptake of radioactive calcium.
(§3) Test compounds were dissolved in 100% DMSO to prepare 10 mM stock and then diluted using plain medium with 0.1% BSA and 1.8 mM CaCl2 to get the desired concentration. The final concentration of DMSO in the reaction was 0.5% (v/v). […] Rat TRPA1 expressing CHO cells were grown in F-12 DMEM medium with 10% FBS, 1% penicillin-streptomycin solution, and 400 μg/ml of Zeocin. […] Cells were treated with the test compounds for 10 minutes followed by the addition of AITC at a final concentration of 30 μM (for human TRPA1) and/or 10 μM (for rat TRPA1) and 5 μCi/ml ^45Ca^+2 for 3 minutes. Cells were washed and lysed using a buffer containing 1% Triton X-100, 0.1% deoxycholate and 0.1% SDS. Radioactivity in the lysate was measured in a Packard TopCount after addition of liquid scintillant.
(§4) Concentration response curves were plotted as a % of maximal response obtained in the absence of test antagonist. IC50 values can be calculated from concentration response curve by nonlinear regression analysis using GraphPad PRISM software.

Assay [2] concerns the target T2, Rat TRPA1 expressing CHO cells (Rattus norvegicus, UniProt Q6RI86).
T2 construct: expressed in transfected cells; host or cells: CHO cells (Zeocin selection)
Put plainly: 45Calcium uptake assay, inhibition of AITC induced calcium uptake (rat). Type of assay: cell-based. Particulars: rat TRPA1 CHO cells, AITC 10 μM; for inhibition at 1 µM: compound 1.0 μM, read-out: Percentage inhibition at 1.0 μM; for inhibition at 10 µM: compound 10.0 μM, read-out: Percentage inhibition at 10.0 μM; for IC50: read-out: Rat IC50 value (Range). The procedure:
as §1, §2, §3, §4

SMILES strings stand for the structures.

T2 sequence (Q6RI86 whole entry): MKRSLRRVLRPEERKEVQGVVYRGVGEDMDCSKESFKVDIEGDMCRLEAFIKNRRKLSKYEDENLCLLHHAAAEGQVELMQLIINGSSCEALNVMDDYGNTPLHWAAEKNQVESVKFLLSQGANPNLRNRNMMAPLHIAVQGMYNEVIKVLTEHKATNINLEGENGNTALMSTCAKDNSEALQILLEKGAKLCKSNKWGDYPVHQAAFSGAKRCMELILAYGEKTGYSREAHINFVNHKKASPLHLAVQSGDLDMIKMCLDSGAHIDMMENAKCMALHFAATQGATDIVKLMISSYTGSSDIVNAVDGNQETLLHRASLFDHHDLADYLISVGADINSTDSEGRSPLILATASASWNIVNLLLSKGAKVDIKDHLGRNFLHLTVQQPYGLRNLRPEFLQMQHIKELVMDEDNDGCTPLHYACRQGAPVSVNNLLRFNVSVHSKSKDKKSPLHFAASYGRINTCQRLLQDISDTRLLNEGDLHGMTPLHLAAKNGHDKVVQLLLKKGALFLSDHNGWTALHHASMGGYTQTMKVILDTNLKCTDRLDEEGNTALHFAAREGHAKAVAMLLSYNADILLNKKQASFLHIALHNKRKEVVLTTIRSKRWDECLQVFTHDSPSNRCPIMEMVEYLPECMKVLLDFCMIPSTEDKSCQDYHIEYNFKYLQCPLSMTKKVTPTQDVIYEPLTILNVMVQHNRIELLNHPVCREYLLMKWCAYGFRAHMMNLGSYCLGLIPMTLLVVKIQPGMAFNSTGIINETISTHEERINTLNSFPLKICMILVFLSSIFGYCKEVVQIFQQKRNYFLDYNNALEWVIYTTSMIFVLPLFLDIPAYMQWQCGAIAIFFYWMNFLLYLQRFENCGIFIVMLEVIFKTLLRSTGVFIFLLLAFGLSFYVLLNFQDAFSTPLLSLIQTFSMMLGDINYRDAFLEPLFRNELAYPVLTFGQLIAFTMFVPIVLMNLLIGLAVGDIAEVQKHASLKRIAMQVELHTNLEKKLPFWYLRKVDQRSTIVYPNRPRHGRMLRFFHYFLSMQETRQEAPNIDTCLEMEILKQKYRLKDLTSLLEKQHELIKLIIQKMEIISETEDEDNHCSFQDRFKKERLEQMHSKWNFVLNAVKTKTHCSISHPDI
T1 sequence (O75762 whole entry): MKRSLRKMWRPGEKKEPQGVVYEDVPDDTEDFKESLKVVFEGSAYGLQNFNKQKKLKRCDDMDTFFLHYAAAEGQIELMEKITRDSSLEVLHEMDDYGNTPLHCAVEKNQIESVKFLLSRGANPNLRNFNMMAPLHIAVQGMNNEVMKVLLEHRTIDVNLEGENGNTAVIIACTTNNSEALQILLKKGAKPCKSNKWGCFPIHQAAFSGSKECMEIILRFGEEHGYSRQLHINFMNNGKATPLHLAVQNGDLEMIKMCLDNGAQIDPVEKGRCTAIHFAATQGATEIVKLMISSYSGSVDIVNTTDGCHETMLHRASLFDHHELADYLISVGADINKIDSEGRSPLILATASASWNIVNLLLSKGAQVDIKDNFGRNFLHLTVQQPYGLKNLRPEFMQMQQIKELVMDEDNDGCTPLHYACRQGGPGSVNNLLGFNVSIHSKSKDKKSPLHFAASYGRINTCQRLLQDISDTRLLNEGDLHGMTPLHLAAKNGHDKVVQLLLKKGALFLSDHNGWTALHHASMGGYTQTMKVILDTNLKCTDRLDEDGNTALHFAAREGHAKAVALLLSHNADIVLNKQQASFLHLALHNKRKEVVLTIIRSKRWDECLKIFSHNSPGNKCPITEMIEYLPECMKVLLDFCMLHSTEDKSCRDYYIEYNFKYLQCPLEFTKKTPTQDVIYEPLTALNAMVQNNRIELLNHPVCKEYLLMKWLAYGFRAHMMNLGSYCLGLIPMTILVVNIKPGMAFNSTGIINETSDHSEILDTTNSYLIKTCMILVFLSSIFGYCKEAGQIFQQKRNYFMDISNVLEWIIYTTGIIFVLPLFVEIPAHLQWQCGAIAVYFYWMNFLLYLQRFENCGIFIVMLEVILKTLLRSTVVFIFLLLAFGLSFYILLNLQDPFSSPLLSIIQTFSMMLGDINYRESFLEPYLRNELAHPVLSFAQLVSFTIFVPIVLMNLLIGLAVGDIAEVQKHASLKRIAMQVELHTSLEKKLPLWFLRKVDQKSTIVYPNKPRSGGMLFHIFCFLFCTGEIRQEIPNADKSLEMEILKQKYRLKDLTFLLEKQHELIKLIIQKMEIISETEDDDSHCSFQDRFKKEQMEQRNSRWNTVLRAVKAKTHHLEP

As for `CCc1sc2c(c1CC(=O)Nc1nc(-c3ccc(C#N)cc3)cs1)c(=O)n(C)c(=O)n2C` [Example 30, N-[4-(4-Cyanophenyl)-1,3-thiazol-2-yl]-2-(6-ethyl-1,3-dimethyl-2,4-dioxo-1,2,3,4-tetrahydrothieno[2,3-d]pyrimidin-5-yl)acetamide], in assay [1], the inhibition at 1 µM worked out at 88.9%, the inhibition at 10 µM was 98.4% and the IC50 was in the range of 50 to 500 nM. For the same compound, in assay [2], the inhibition at 1 µM was found to be 46.4% and the inhibition at 10 µM was determined as 83.6%.

Take `CCc1sc2c(c1CC(=O)Nc1nc(-c3ccc(C(F)(F)F)c(F)c3)cs1)c(=O)n(C)c(=O)n2C` [Example 31, N-{4-[3-Fluoro-4-(trifluoromethyl)phenyl]-1,3-thiazol-2-yl}-2-(6-ethyl-1,3-dimethyl-2,4-dioxo-1,2,3,4-tetrahydrothieno[2,3-d]pyrimidin-5-yl)acetamide]: in assay [1], the inhibition at 1 µM turned out to be 98%, the inhibition at 10 µM came to 98.5% and the IC50 is less than 50 nM. Further, in assay [2], the inhibition at 1 µM came to 96.8%, the inhibition at 10 µM stood at 97.3% and the IC50 lay within 50 to 500 nM.

In the case of `CCc1sc2c(c1CC(=O)Nc1nc(-c3ccc(F)c(C(F)(F)F)c3F)cs1)c(=O)n(C)c(=O)n2C` [Example 32], in assay [1], the inhibition at 1 µM was found to be 99.2%, the inhibition at 10 µM came out at 99.3% and the IC50 is less than 50 nM. In assay [2], the inhibition at 1 µM was determined as 99.9%, the inhibition at 10 µM was found to be 98.8% and the IC50 is less than 50 nM.

As to `CCc1sc2c(c1CC(=O)Nc1nc(-c3cc(F)c(OC(F)F)c(F)c3)cs1)c(=O)n(C)c(=O)n2C` [Example 33, N-{4-[4-(Difluoromethoxy)-3,5-difluorophenyl]-1,3-thiazol-2-yl}-2-(6-ethyl-1,3-dimethyl-2,4-dioxo-1,2,3,4-tetrahydrothieno[2,3-d]pyrimidin-5-yl)acetamide], in assay [1], the inhibition at 1 µM is 96.9%, the inhibition at 10 µM worked out at 96.9% and the IC50 is less than 50 nM. Besides, in assay [2], the inhibition at 1 µM is 96.5%, the inhibition at 10 µM worked out at 97.3% and the IC50 fell in the range of 50 to 500 nM.

Take `CCc1sc2c(c1CC(=O)Nc1nc(-c3cc(F)c(OCC(F)(F)F)c(F)c3)cs1)c(=O)n(C)c(=O)n2C` [Example 34, N-{4-[3,5-Difluoro-4-(2,2,2-trifluoroethoxy)phenyl]-1,3-thiazol-2-yl}-2-(6-ethyl-1,3-dimethyl-2,4-dioxo-1,2,3,4-tetrahydrothieno[2,3-d]pyrimidin-5-yl)acetamide]: in assay [1], the inhibition at 1 µM worked out at 97.4%, the inhibition at 10 µM turned out to be 98.4% and the IC50 was less than 50 nM. Moreover, in assay [2], the inhibition at 1 µM was found to be 88.7%, the inhibition at 10 µM amounted to 93.3% and the IC50 fell in the range of 50 to 500 nM.

As for `CCCc1sc2c(c1CC(=O)Nc1nc(-c3ccc(C(F)(F)F)c(F)c3)cs1)c(=O)n(C)c(=O)n2C` [Example 35, N-{4-[3-Fluoro-4-(trifluoromethyl)phenyl]-1,3-thiazol-2-yl}-2-(1,3-dimethyl-2,4-dioxo-6-propyl-1,2,3,4-tetrahydrothieno[2,3-d]pyrimidin-5-yl) acetamide], in assay [1], the inhibition at 1 µM is 99.1%, the inhibition at 10 µM is 100% and the IC50 is less than 50 nM. In addition, in assay [2], the inhibition at 1 µM was determined as 90.1%, the inhibition at 10 µM is 98.3% and the IC50 lay in the range of 50 to 500 nM.

Consider `CCCc1sc2c(c1CC(=O)Nc1nc(-c3cc(F)c(OC(F)F)c(F)c3)cs1)c(=O)n(C)c(=O)n2C` [Example 36, N-{4-[4-Difluoromethoxy-3,5-difluorophenyl]-1,3-thiazol-2-yl}-2-(1,3-dimethyl-2,4-dioxo-6-propyl-1,2,3,4-tetrahydrothieno[2,3-d]pyrimidin-5-yl) acetamide], for which, in assay [1], the inhibition at 1 µM came out at 98.9%, the inhibition at 10 µM amounted to 99.8% and the IC50 was less than 50 nM. For the same compound, in assay [2], the inhibition at 1 µM is 99.1%, the inhibition at 10 µM was determined as 99.5% and the IC50 was in the range of 50 to 500 nM.

In the case of `CC(C)c1sc2c(c1CC(=O)Nc1nc(-c3ccc(C(F)(F)F)c(F)c3)cs1)c(=O)n(C)c(=O)n2C` [Example 37, N-{4-[3-Fluoro-4-(trifluoromethyl)phenyl]-1,3-thiazol-2-yl}-2-(6-isopropyl-1,3-dimethyl-2,4-dioxo-1,2,3,4-tetrahydrothieno[2,3-d]pyrimidin-5-yl)acetamide], in assay [1], the inhibition at 1 µM amounted to 99%, the inhibition at 10 µM is 97.7% and the IC50 was less than 50 nM. In assay [2], the inhibition at 1 µM worked out at 94.9%, the inhibition at 10 µM is 97% and the IC50 is less than 50 nM.

Consider `CC(C)Cc1ccc(-c2csc(NC(=O)Cc3scc4c3c(=O)n(C)c(=O)n4C)n2)cc1` [Example 44, 2-(1,3-Dimethyl-2,4-dioxo-1,2,3,4-tetrahydrothieno[3,4-d]pyrimidin-5-yl)-N-[4-(4-isobutylphenyl)-1,3-thiazol-2-yl]acetamide], for which, in assay [1], the inhibition at 1 µM came to 91.4%, the inhibition at 10 µM worked out at 93.2% and the IC50 was in the range of 50 to 500 nM. Also, in assay [2], the inhibition at 1 µM was 84.1% and the inhibition at 10 µM was 95.3%.

Turning to `Cn1c(=O)c2c(CC(=O)Nc3nc(-c4ccc(Cl)cc4)cs3)scc2n(C)c1=O` [Example 45, N-[4-(4-Chlorophenyl)-1,3-thiazol-2-yl]-2-(1,3-dimethyl-2,4-dioxo-1,2,3,4-tetrahydrothieno[3,4-d]pyrimidin-5-yl)acetamide], in assay [1], the inhibition at 1 µM was determined as 94%, the inhibition at 10 µM was determined as 98.9% and the IC50 lay in the range of 50 to 500 nM. Besides, in assay [2], the inhibition at 1 µM was 66.2% and the inhibition at 10 µM was 94.8%.

As for `Cn1c(=O)c2c(CC(=O)Nc3nc(-c4cccc(C(F)(F)F)c4)cs3)scc2n(C)c1=O` [Example 46], in assay [1], the inhibition at 1 µM was determined as 93.9%, the inhibition at 10 µM was 98.5% and the IC50 is less than 50 nM. Moreover, in assay [2], the inhibition at 1 µM came to 93.2%, the inhibition at 10 µM was 99.7% and the IC50 lay within 50 to 500 nM.

Consider `Cn1c(=O)c2c(CC(=O)Nc3nc(-c4ccc(C(F)(F)F)cc4)cs3)scc2n(C)c1=O` [Example 47], for which, in assay [1], the inhibition at 1 µM was 97.9%, the inhibition at 10 µM was determined as 98.8% and the IC50 is less than 50 nM. Moreover, in assay [2], the inhibition at 1 µM amounted to 88.9% and the inhibition at 10 µM was found to be 99.6%.

Take `Cn1c(=O)c2c(CC(=O)Nc3nc(-c4cccc(OC(F)(F)F)c4)cs3)scc2n(C)c1=O` [Example 48, 2-(1,3-Dimethyl-2,4-dioxo-1,2,3,4-tetrahydrothieno[3,4-d]pyrimidin-5-yl)-N-{4-[3-(trifluoromethoxy)phenyl]-1,3-thiazol-2-yl}acetamide]: in assay [1], the inhibition at 1 µM was determined as 95.5%, the inhibition at 10 µM was found to be 98.9% and the IC50 is 50 to 500 nM. Also, in assay [2], the inhibition at 1 µM was found to be 92.5% and the inhibition at 10 µM came to 100%.

Consider `Cn1c(=O)c2c(CC(=O)Nc3nc(-c4ccc(F)c(C(F)(F)F)c4)cs3)scc2n(C)c1=O` [Example 49, 2-(1,3-Dimethyl-2,4-dioxo-1,2,3,4-tetrahydrothieno[3,4-d]pyrimidin-5-yl)-N-{4-[4-fluoro-3-(trifluoromethyl)phenyl]-1,3-thiazol-2-yl}acetamide], for which, in assay [1], the inhibition at 1 µM was 96%, the inhibition at 10 µM turned out to be 99.8% and the IC50 was less than 50 nM. Moreover, in assay [2], the inhibition at 1 µM amounted to 89.9%, the inhibition at 10 µM was found to be 99% and the IC50 lay in the range of 50 to 500 nM.

`Cn1c(=O)c2c(CC(=O)Nc3nc(-c4ccc(C(F)(F)F)c(F)c4)cs3)scc2n(C)c1=O` [Example 50, 2-(1,3-Dimethyl-2,4-dioxo-1,2,3,4-tetrahydrothieno[3,4-d]pyrimidin-5-yl)-N-{4-[3-fluoro-4-(trifluoromethyl)phenyl]-1,3-thiazol-2-yl}acetamide]: in assay [1], the inhibition at 1 µM was 99.5%, the inhibition at 10 µM is 100% and the IC50 was less than 50 nM. In assay [2], the inhibition at 1 µM was 57.4% and the inhibition at 10 µM turned out to be 99.1%.

As to `Cn1c(=O)c2c(CC(=O)Nc3nc(-c4ccc(C(F)(F)F)cc4F)cs3)scc2n(C)c1=O` [Example 51, 2-(1,3-Dimethyl-2,4-dioxo-1,2,3,4-tetrahydrothieno[3,4-d]pyrimidin-5-yl)-N-{4-[2-fluoro-4-(trifluoromethyl)phenyl]-1,3-thiazol-2-yl}acetamide], in assay [1], the inhibition at 1 µM amounted to 96.9%, the inhibition at 10 µM worked out at 99.7% and the IC50 was less than 50 nM. Further, in assay [2], the inhibition at 1 µM was determined as 93%, the inhibition at 10 µM came out at 100% and the IC50 lay in the range of 50 to 500 nM.

One may read the inhibition as the percentage by which the read-out fell short of the control. For orientation: IC50 means the point on the concentration scale where inhibition reaches its midpoint.
